≈ marks a conversion by molar mass, not a printed value. Where “and” joins values, the source holds several entries; their conditions need not be identical. Identical values can stand only once. Like-named read-outs stand apart in the source and are kept apart here. Marks after values point to notes of the source that are not given here.
What was measured:
[1] = physchem
[2] = system: HepG2 cells; assay type: cell-based, human; settings: for HepG2 Tox50: 48 h incubation
Experimental: Cytotoxicity assay was performed measuring the viability of immortalized human cell line culture (HepG2) after 48 h of incubation with a full curve concentration of the test substances in culture medium. For read out of viability of cells we used Resazurine (BDH®). Resazurin is used as an oxidation-reduction indicator that yields a colorimetric change and a fluorescent signal in response to metabolic activity. As cell grow, metabolic activity results in a chemical reduction of Resazurin indicated by a change from non-fluorescent blue to the reduced fluorescent pink form. The degree of Resazurin fluorescence is therefore, an indicator of the number of viable cells in the culture system. The cytotoxicity results were expressed as Tox50 values (IC50). This was done by calculating the concentration of test compounds that would result in a decrease in Resazurin reduction equivalent to 50% of the concurrent control values. The protocol we followed is described below briefly.
Cell line HepG2 (HB-8065) were cultured with fresh medium (Essential Minimum Eagle Medium, EMEM, supplemented with 5% fetal calf serum and 2 mM L-glutamine) the day before subculturing the plates. On the day of the assay, cells (10,000 cells/well) were seeded in a black 96-well collagen coated microplate with clear bottom, (Becton Dickinson®) except in column 11, that was dispensed only 100 μL of culture medium.
Stock solution from each test substances was prepared in 100% DMSO. Ten serial 1∶2 dilutions were prepared of each test compound and, finally, a 1∶200 dilution was made, in medium, to achieve a final concentration of 0.5% of DMSO. Resazurin tablets (Merck®) were dissolved in phosphate buffer saline at a concentration of 0.0042%.
After 24 h of incubation of the cells (37°C, 5% CO2, 95% relative humidity), a volume of 150 μL of culture medium containing the appropriate test concentrations of the compounds dilutions were added to cells in two replicates. In column 12, only 150 μL of 0.5% DMSO was added (blank control). Then, cells were exposed to test compounds for 48 h. After that, medium was removed and Resazurin solution was added to each well and incubated for further 1.5 h. Fluorescence was measured at an excitation wavelength of 515 nm and an emission wavelength of 590 nm in a Microplate reader 1420 Multilabel HTS counter, Victor 2, (Wallac®) The fluorescence value of each well is corrected by subtracting the background value (average of column 11) from the absolute value. The percentages of inhibition are calculated relatively to the DMSO control wells (average of column 12). For each compound, the average value of the duplicate samples is calculated. Data were processed using an Excel spreadsheet and GraphPad Software analysis. Tox50 values were calculated from the Sigmoidal dose-response (variable slope) curves by nonlinear regression analysis.

[3] = system: M. bovis BCG; assay type: cell-based, Mycobacterium bovis BCG
[4] = assay type: in vitro ADME, human; settings: for Cli human: human microsomes
Experimental: (§1) Pooled mouse, rat, dog and human liver microsomes were purchased from Xenotech. Microsomes (final protein concentration 0.5 mg/ml, MgCl2 (final concentration 5 mM) and test compound (final substrate concentration 0.5 µM; final DMSO concentration 0.5 %) in 0.1 M phosphate buffer pH 7.4 were pre-incubated at 37°C prior to the addition of NADPH (final concentration 1 mM) to initiate the reaction. The final incubation volume was 600 µl. Control incubation was included for each compound tested where 0.1 M phosphate buffer pH 7.4 was added instead of NADPH (minus NADPH). One control compound was included with each species. All incubations were performed singularly for each test compound. Each compound was incubated for 30 minutes and samples (90 µl) of incubate were taken at 0, 5, 10, 20 and 30 minutes. The control (minus NADPH) was sampled at 0 and 30 minutes only. The reactions were stopped by the addition of sample to 200 µl of acetonitrile:methanol (3∶1) containing an internal standard. The terminated samples were centrifuged at 3700 rpm for 15 minutes at 4°C to precipitate the protein. Quantitative analysis: following protein precipitation, the samples were analyzed using specific LC-MS/MS conditions. Data analysis: from a plot of ln peak area ratio (compound peak area/internal standard peak area) against time, the gradient of the line was determined. Subsequently, half-life and intrinsic clearance were calculated using the equations below:
(§2) Elimination rate constant (k) = (-gradient) Half life [drawing 1]
(§3) Intrinsic Clearance (CLint) (ml/min/g protein) = [drawing 2] where V = Incubation volume ml/g microsomal protein.

[5] = in words
[6] = system: panel of Gram-positive and Gram-negative organisms; assay: General antimicrobial activity assay (broth microdilution); assay type: cell-based; settings: read-out: Antibacterial panel IC50
Experimental: Whole-cell antimicrobial activity was determined by broth microdilution using the Clinical and Laboratory Standards Institute (CLSI) recommended procedure, Document M7-A7, “Methods for Dilution Susceptibility Tests for Bacteria that Grow Aerobically”. Some compounds have been evaluated against a panel of Gram-positive and Gram-negative organisms, including Enterococcus faecium, Enterococcus faecalis, Haemophilus influenzae, Moraxella catarrhalis, Streptococcus pneumoniae, Escherichia coli and Streptococcus pyogenes. The MIC was determined as the lowest concentration of compound producing a >80 % reduction in fluorescence observed.

[7] = system: M. tuberculosis; assay: Killing kinetics assay; assay type: cell-based, Mycobacterium tuberculosis; settings: for reduction of cfu counts after one week of treatment: 20x MIC; for in vitro killing behaviour: kill rate over 7 days
[8] = assay type: in vitro ADME, mouse
Experimental: as §1, §2, §3

[9] = system: clinical M. tuberculosis isolates; assay: MIC against clinical strains (BACTEC MGIT 960); assay type: cell-based, Mycobacterium tuberculosis; settings: for MIC90: Mycobacterium tuberculosis, read-out: M. tuberculosis MIC90 (108 strains)
[10] = system: GFP expressing M. tuberculosis H37Rv in Raw264.7 macrophages; assay: microbe, parasite or virus in culture; assay type: cell-based, Mycobacterium tuberculosis; settings: read-out: Intracell. H37Rv MIC80
[11] = system: M. tuberculosis H37Rv; assay: MIC determination against M. tuberculosis H37Rv (resazurin); assay type: cell-based, Mycobacterium tuberculosis
[12] = in vivo; design: species or system mice
Experimental: Figure 5 Whole blood pharmacokinetic profile and main parameters of compounds 3 and 4. Compounds were given orally at 50 mg/Kg suspension in 1% aqueous methylcellulose. Main pharmacokinetic parameters were established after non-compartimental analysis. AUC: Area Under the Curve; Cmax: Maximum concentration observed in whole blood; %F: percentage bioavailability. TEXT PRINTED IN THE PICTURE: 3: Tmax (h): 3.0 ± 2.8 (Dose (mg/kg): 50); Cmax (μg/ml): 1.8 ± 0.5 (Dose (mg/kg): 50); AUC0-24h (μg*h/ml): 26.2 ± 9.4 (Dose (mg/kg): 50); DNAUC0-24h (μg*h/ml per mg/kg): 0.6 ± 0.2 (Dose (mg/kg): 50); %F: 96.1 ± 32.2 (Dose (mg/kg): 50) | 4: Tmax (h): 0.7 ± 0.1 (Dose (mg/kg): 50); Cmax (μg/ml): 1.3 ± 0.2 (Dose (mg/kg): 50); AUC0-24h (μg*h/ml): 8.7 ± 0.6 (Dose (mg/kg): 50); DNAUC0-24h (μg*h/ml per mg/kg): 0.20 ± 0.01 (Dose (mg/kg): 50); %F: 54.6 ± 5.4 (Dose (mg/kg): 50)
Experimental compounds were administered by oral gavage at 50 mg/kg single dose at a volume of 20 ml/kg to n = 5 mice. All mice received treatment in the fed state. Peripheral total blood was the compartment chosen for the establishment of compound concentrations: 25 μl of blood was taken from the lateral tail vein for each mouse at 15, 30 and 45 minutes, 1, 2, 4, 8 and 24 hours. LC-MS was used as the analytical method of choice for the establishment of compound concentration in blood with a sensitivity of LLQ = 1–5 ng/ml in 25 µl blood. The non-compartmental data analysis (NCA) was performed with WinNonlin Phoenix 6.3 (Pharsight, Certara L.P) and supplementary analysis was performed with GraphPad Prism 5 (GraphPad Software, Inc).

[13] = system: M. tuberculosis H37Rv; assay: In vivo efficacy in acute TB murine model; design: species or system Mycobacterium tuberculosis
[14] = Sensitive phenotype, 60 strains
[15] = monoR H (Isoniazid), 20 strains
[16] = monoR Rf (Rifampicin), 3 strains
[17] = monoR Sm (Streptomycin), 11 strains
[18] = Mycobacterium tuberculosis, H37RV

Row | SMILES | solubility [1] | HepG2 Tox50 [2] | effect on TMM in [14C]-labelled cultures [3] | effect on other classes of lipids, in particular phospholipids [3] | Cli human [4] | IC50 [6] | reduction of cfu counts after one week of treatment [7] | in vitro killing behaviour [7] | Cli mouse ([8]; mouse microsomes) | Range of MIC's [9] | MIC90 [9] | Range of MIC's [9, 14] | Range of MIC's [9, 15] | Range of MIC's [9, 16] | Range of MIC's [9, 17] | MIC80 [10, 18] | MIC ([11]; Mycobacterium tuberculosis) | also measured
1 | CCc1ccc([C@H]2C[C@@H](C(F)(F)F)n3ncc(C(=O)NCc4ccc(OC)cc4)c3N2)cc1 [Compound 1, (5R,7S)-5-(4-ethylphenyl)-N-(4-methoxybenzyl)-7-(trifluoromethyl)-4,5,6,7-tetrahydropyrazolo[1,5-a]pyrimidine-3-carboxamide] | 5 µM (≈ 2.29 µg/mL) | >25 ^* µM | accumulation of TMM | unaffected | 0.29 mL/min/g | ≥ 32 µM | > 3 log cfu | bactericidal | 0.69 mL/min/g | 0.16 to 2.5 µM and 0.3 to 5 µM | 0.6 µM (≈ 0.275 µg/mL) | 0.16 to 0.6 µM | 0.16 to 0.6 µM | 0.16 to 0.3 µM | 0.16 to 0.6 µM | 0.16 µM (≈ 0.0734 µg/mL) | 0.3 µM (≈ 0.138 µg/mL) | signs of cytotoxicity at the maximum concentration tested ([2]; maximum concentration where compound was in solution): did not show initial signs of cytotoxicity; solubility in different media [5]: very low solubility
2 | c1cc2c(s1)CCOC21CCN(Cc2ccc3c(c2)OCCO3)CC1 [Compound 2] | 266 µM (≈ 95.1 µg/mL) | 36 µM | accumulation of TMM | unaffected | 25 mL/min/g | ≥ 16 µM | > 3 log cfu | bactericidal | >30 mL/min/g | 0.3 to 1.25 µM | 0.6 µM (≈ 0.214 µg/mL) | 0.3 to 1.25 µM | 0.3 to 10 µM | 0.6 to 10 µM | 0.3 to 10 µM | 0.63 µM (≈ 0.225 µg/mL) | 0.3 µM (≈ 0.107 µg/mL) | intrinsic clearance values in human microsomes ([4]; in words): poor; intrinsic clearance values in mice microsomes ([8]; in words): poor
3 | CCc1ccc([C@H]2C[C@@H](C(F)(F)F)n3ncc(C(=O)NCc4ccc5c(c4)OCO5)c3N2)cc1 [Compound 3] | – | > 25 µM | – | – | – | – | – | – | 0.8 mL/min/g | – | – | – | – | – | – | – | < 0.5 µM | DNAUC0-24h ([12]; mice, oral 50 mg/kg, whole blood): 0.6 ± 0.2 μg*h/ml per mg/kg; AUC(0-t) ([12]; mouse, in vivo, po, 50 mg/kg, mice, oral 50 mg/kg, whole blood, read-out: AUC0-24h): 26200 ± 9400 ng·h/mL; AUC(0-t) ([12]; mouse, in vivo, po, 50 mg/kg, po 50 mg/kg (Figure 4), read-out: AUC 24h): 26500 ng·h/mL; AUC ([12]; mouse, in vivo, po, 50 mg/kg, minimum requirement fulfilled, read-out: AUC after oral administration 50 mg/kg): > 1000 ng·h/mL; bioavailability ([12]; mouse, in vivo, mice, oral 50 mg/kg, whole blood, read-out: %F): 96.1 ± 32.2%; Cmax ([12]; mouse, in vivo, mice, oral 50 mg/kg, whole blood, read-out: Cmax): 1800 ± 500 ng/mL; Tmax ([12]; mouse, in vivo, mice, oral 50 mg/kg, whole blood, read-out: Tmax): 3 ± 2.8 h; reduction in lung bacterial load ([13]; 100 mg/kg orally once a day, day 1 to day 8, B6 mice): 1.5 log units; reduction in lung bacterial load ([13]; 300 mg/kg orally once a day, day 1 to day 8, B6 mice): 2.2 log units; MIC80 [10]: 0.31 µM (≈ 0.146 µg/mL); MIC [11]: 0.16 µM (≈ 0.0756 µg/mL)
4 | Cl.FC(F)(F)Oc1ccc(Oc2ccc(CN3CCC4(CC3)OCCc3sccc34)cc2)cc1 [Compound 4] | – | 36 µM | – | – | – | – | – | – | – | – | – | – | – | – | – | – | – | AUC ([12]; mouse, in vivo, po, 50 mg/kg): > 1000 ng·h/mL; Cmax ([12]; mouse, in vivo, po, 50 mg/kg): 1300 ± 200 ng/mL; DNAUC0-24h ([12]; mouse, in vivo, po, 50 mg/kg): 0.20 ± 0.01 μg*h/ml per mg/kg; Tmax ([12]; mouse, in vivo, po, 50 mg/kg): 0.7 ± 0.1 h; bioavailability ([12]; mouse, in vivo, po, 50 mg/kg): 54.6 ± 5.4%; AUC(0-t) ([12]; mouse, in vivo, po, 50 mg/kg, AUC0-24h): 8700 ± 600 ng·h/mL; AUC(0-t) ([12]; mouse, in vivo, po, 50 mg/kg, AUC 24h): 8700 ng·h/mL; Cli mouse ([8]; mouse, pH 7.4): 1.2 mL/min/g; reduction in lung bacterial load ([13]; in vivo): 2.3 log units and 2.7 log units

Source: PMC3629081, “Tetrahydropyrazolo[1,5-a]Pyrimidine-3-Carboxamide and N-Benzyl-6′,7′-Dihydrospiro[Piperidine-4,4′-Thieno[3,2-c]Pyran] Analogues with Bactericidal Efficacy against Mycobacterium tuberculosis Targeting MmpL3” (PLoS ONE, 2013)
